Test results from patent US7834030B2, “Phenyl-[1,2,4]-oxadiazol-5-one derivatives, pharmaceutical compositions and therapeutic use thereof” (Sanofi-Aventis, priority 2005, dated 2010).

Each compound was assayed against T1, human PPARalpha (Homo sapiens, UniProt Q07869) (assay: cellular PPARalpha assay (GAL4 luciferase reporter, stably transfected HEK cell line)).
T1 construct: human PPARalpha receptor (amino acids S167-Y468); expressed in transfected cells; plasmid pcDNA3
T1 sequence (Q07869 167-468): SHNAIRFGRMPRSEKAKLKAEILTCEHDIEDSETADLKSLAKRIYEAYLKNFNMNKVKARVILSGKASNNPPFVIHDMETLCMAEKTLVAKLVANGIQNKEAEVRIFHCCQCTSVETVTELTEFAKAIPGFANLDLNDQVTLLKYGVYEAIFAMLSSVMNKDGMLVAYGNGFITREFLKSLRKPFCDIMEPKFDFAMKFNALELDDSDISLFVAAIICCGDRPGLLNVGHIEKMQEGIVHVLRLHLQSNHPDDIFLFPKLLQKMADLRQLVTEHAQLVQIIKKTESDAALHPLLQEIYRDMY
Assay type: cell-based
Method: The activity of the compounds was tested through the determination of EC50 values of PPAR agonists in the cellular PPARalpha assay. The potency of substances which bind to human PPARalpha and activate it in an agonistic manner was analyzed using a stably transfected HEK cell line (HEK=human embryo kidney) which is referred to here as PPARalpha reporter cell line. It contains two genetic elements, a luciferase reporter element (pdeltaM-GAL4-Luc-Zeo) and a PPARalpha fusion protein (GR-GAL4-humanPPARalpha-LBD) which mediates expression of the luciferase reporter element depending on a PPARalpha ligand. The stably and constitutively expressed fusion protein GR-GAL4-humanPPARalpha-LBD binds in the cell nucleus of the PPARalpha reporter cell line via the GAL4 protein portion to the GAL4 DNA binding motifs 5′-upstream of the luciferase reporter element which is stably integrated in the genome of the cell line. There is only weak expression of the luciferase reporter gene in the absence of a PPARalpha ligand if fatty acid-depleted fetal calf serum (cs-FCS) is used in the assay. PPARalpha ligands bind and activate the PPARalpha fusion protein and thereby stimulate the expression of the luciferase reporter gene. The luciferase which is formed can be detected by means of chemiluminescence via an appropriate substrate.
The PPARalpha reporter cell line was prepared in two stages. Firstly, the luciferase reporter element was constructed and stably transfected into HEK cells. For this purpose, five binding sites of the yeast transcription factor GAL4 (Accession # AF264724) were cloned in 5′-upstream of a 68 bp-long minimal MMTV promoter (Accession # V01175). The minimal MMTV promoter section contains a CCAAT box and a TATA element in order to enable efficient transcription by RNA polymerase II. The cloning and sequencing of the GAL4-MMTV construct took place in analogy to the description of Sambrook J. et. al. (Molecular cloning, Cold Spring Harbor Laboratory Press, 1989). Then the complete Photinus pyralis gene (Accession # M15077) was cloned in 3′-downstream of the GAL4-MMTV element. After sequencing, the luciferase reporter element consisting of five GAL4 binding sites, MMTV promoter and luciferase gene was recloned into a plasmid which confers zeocin resistance in order to obtain the plasmid pdeltaM-GAL4-Luc-Zeo. This vector was transfected into HEK cells in accordance with the statements in Ausubel, F. M. et al. (Current protocols in molecular biology, Vol. 1-3, John Wiley & Sons, Inc., 1995).
In a second step, the PPARalpha fusion protein (GR-GAL4-humanPPARalpha-LBD was introduced into the stable cell clone described. For this purpose, initially the cDNA coding for the N-terminal 76 amino acids of the glucocorticoid receptor (Accession # P04150) was linked to the cDNA section coding for amino acids 1-147 of the yeast transcription factor GAL4 (Accession # P04386). The cDNA of the ligand-binding domain of the human PPARalpha receptor (amino acids S167-Y468; Accession # S74349) was cloned in at the 3′-end of this GR-GAL4 construct. The fusion construct prepared in this way (GR-GAL4-humanPPARalpha-LBD) was recloned into the plasmid pcDNA3 (Invitrogen) in order to enable constitutive expression therein by the cytomegalovirus promoter. This plasmid was linearized with a restriction endonuclease and stably transfected into the previously described cell clone containing the luciferase reporter element. The finished PPARalpha reporter cell line which contains a luciferase reporter element and constitutively expresses the PPARalpha fusion protein (GR-GAL4-human PPARalpha-LBD) was isolated by selection with zeocin (0.5 mg/ml) and G418 (0.5 mg/ml).
The activity of PPARalpha agonists was determined in a 3-day assay, which is described below: […]

Going from CCC(Oc1ccc(-c2noc(=O)[nH]2)c(Cl)c1)c1sc(-c2ccc(C(F)(F)F)cc2)nc1C (racemic) [Example 4, 3-(2-Chloro-4-{1-[4-methyl-2-(4-trifluoromethyl-phenyl)-thiazol-5-yl]-propoxy}-phenyl)-4H-[1,2,4]oxadiazol-5-one] to CCC(Oc1ccc(-c2noc(=O)[nH]2)c(F)c1)c1sc(-c2ccc(C(F)(F)F)cc2)nc1C (racemic) [Example 35, 3-(2-Fluoro-4-{1-[4-methyl-2-(4-trifluoromethyl-phenyl)-thiazol-5-yl]-propoxy}-phenyl)-4H-1,2,4-oxadiazol-5-one], the EC50 rises from 12 nM to 269 nM (22-fold). The first is the more potent here.

First: Cc1nc(-c2ccc(C(F)(F)F)cc2)sc1C(Cc1ccccn1)Oc1ccc(-c2noc(=O)[nH]2)c(Cl)c1 (racemic) [Example 10, 3-(2-Chloro-4-{1-[4-methyl-2-(4-trifluoromethyl-phenyl)-thiazol-5-yl]-2-pyridin-2-yl-ethoxy}-phenyl)-4H-[1,2,4]oxadiazol-5-one]
Second: Cc1nc(-c2ccc(C(F)(F)F)cc2)sc1C(Oc1ccc(-c2noc(=O)[nH]2)c(Cl)c1)C(F)(F)F (racemic) [Example 20, 3-(2-Chloro-4-{2,2,2-trifluoro-1-[4-methyl-2-(4-trifluoromethyl-phenyl)-thiazol-5-yl]-ethoxy}-phenyl)-4H-[1,2,4]oxadiazol-5-one]
The EC50 of the first is 14-fold higher: 4380 nM for the first, 307 nM for the second.

Going from CCC(Oc1ccc(-c2noc(=O)[nH]2)c(C2CC2)c1)c1sc(-c2ccc(C(F)(F)F)cc2)nc1C (racemic) [Example 16, 3-(2-Cyclopropyl-4-{1-[4-methyl-2-(4-trifluoromethyl-Phenyl)-thiazol-5-yl]-propoxy}-phenyl)-4H-[1,2,4]oxadiazol-5-one] to CCC(Oc1ccc(-c2noc(=O)[nH]2)c(OC(F)F)c1)c1sc(-c2ccc(C(F)(F)F)cc2)nc1C (racemic) [Example 37, 3-(2-Difluoromethoxy-4-{1-[4-methyl-2-(4-trifluoromethyl-phenyl)-thiazol-5-yl]-propoxy}-phenyl)-4H-1,2,4-oxadiazol-5-one], the EC50 rises from 117 nM to 223 nM (1.9-fold). The first is the more potent here.

Compared with Cc1nc(-c2ccc(C(F)(F)F)cc2)sc1C(OCc1ccc(-c2noc(=O)[nH]2)c(F)c1)C(F)(F)F (racemic) [Example 22, 3-(2-Fluoro-4-{2,2,2-trifluoro-1-[4-methyl-2-(4-trifluoromethyl-phenyl)-thiazol-5-yl]-ethoxymethyl}-phenyl)-4H-[1,2,4]oxadiazol-5-one], Cc1nc(-c2ccc(C(F)(F)F)cc2)sc1C(OCc1ccc(-c2noc(=O)[nH]2)c(Cl)n1)C(F)(F)F (racemic) [Example 27, 3-(2-Chloro-6-{2,2,2-trifluoro-1-[4-methyl-2-(4-trifluoromethyl-phenyl)-thiazol-5-yl]-ethoxymethyl}-pyridin-3-yl)-4H-[1,2,4]oxadiazol-5-one] is 2.2-fold lower in EC50: 2640 nM for the first, 1210 nM for the second. The second is the more potent here.

Going from Cc1nc(-c2ccc(C(F)(F)F)cc2)sc1C(OCc1ccc(-c2noc(=O)[nH]2)c2cccnc12)C(F)(F)F (racemic) [Example 25, 3-(8-{2,2,2-Trifluoro-1-[4-methyl-2-(4-trifluoromethyl-phenyl)-thiazol-5-yl]-ethoxymethyl}-quinolin-5-yl)-4H-[1,2,4]oxadiazol-5-one] to Cc1nc(-c2ccc(C(F)(F)F)cc2)sc1C(OCc1ccc(-c2noc(=O)[nH]2)cc1)C(F)(F)C1CC1 (racemic) [Example 32, 3-(4-{2-Cyclopropyl-2,2-difluoro-1-[4-methyl-2-(4-trifluoromethyl-phenyl)-thiazol-5-yl]-ethoxymethyl}-phenyl)-4H-[1,2,4]oxadiazol-5-one], the EC50 rises from 544 nM to greater than 33000 nM. The first is the more potent here.

Compared with CCCCC(Cc1ccc(-c2noc(=O)[nH]2)c(F)c1)c1sc(-c2ccc(C(F)(F)F)cc2)nc1C (racemic) [Example 34, 3-(2-Fluoro-4-{2-[4-methyl-2-(4-trifluoromethyl-phenyl)-thiazol-5-yl]-hexyl}-phenyl)-4H-[1,2,4]oxadiazol-5-one], CC[C@@H](Oc1cc(OC)c(-c2noc(=O)[nH]2)cc1F)c1sc(-c2ccc(C(F)(F)F)cc2)nc1C [(+)-40, (+)-3-(5-Fluoro-2-methoxy-4-{(R)-1-[4-methyl-2-(4-trifluoromethyl-phenyl)-thiazol-5-yl]-propoxy}-phenyl)-4H-1,2,4-oxadiazol-5-one] is 1.6-fold lower in EC50: 1070 nM for the first, 677 nM for the second.

Compared with CCC(Oc1ccc(-c2noc(=O)[nH]2)c(OC)c1)c1sc(-c2ccc(C(F)(F)F)cc2)nc1CN1CCC(C(F)(F)F)CC1 (racemic) [Example 42, 3-(2-Methoxy-4-{1-[2-(4-trifluoromethyl-phenyl)-4-(4-trifluoromethyl-piperidin-1-ylmethyl)-thiazol-5-yl]-propoxy}-phenyl)-4H-1,2,4-oxadiazol-5-one], CC[C@@H](Oc1ccc(-c2noc(=O)[nH]2)c(OC(F)F)c1)c1sc(-c2ccc(C(F)(F)F)cc2)nc1CN1CCC(C(F)(F)F)CC1 [(+)-45, (+)-3-(2-Difluoromethoxy-4-{(R)-1-[2-(4-trifluoromethyl-phenyl)-4-(4-trifluoromethyl-piperidin-1-ylmethyl)-thiazol-5-yl]-propoxy}-phenyl)-4H-1,2,4-oxadiazol-5-one] is lower in EC50: greater than 33000 nM for the first, 1230 nM for the second.

Compound CCC(Oc1ccc(-c2noc(=O)[nH]2)c(OCC(F)(F)F)c1)c1sc(-c2ccc(C(F)(F)F)cc2)nc1C (racemic) [Example 48, 3-[4-{1-[4-Methyl-2-(4-trifluoromethyl-phenyl)-thiazol-5-yl]-propoxy}-2-(2,2,2-trifluoro-ethoxy)-phenyl]-4H-1,2,4-oxadiazol-5-one] has an EC50 of 87 nM.
